According to ChEMBL document CHEMBL1201862, “PubChem BioAssay data set” (2004):
The source made the active and inactive calls.

Assays:
[1] = viability inhibitors of stage V gametocytes – luminescence, dose response (AID 1117278); format: functional, cell-based;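 further: gametocytes exposed to compound for 24 hours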
[2] = viability loss in human Jurkat cells – cell-based, luminescence, cytotoxicity control for P. falciparum gametocyte viability project, dose response (AID 1117277); format: functional;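 further: potency reflects loss of cellular ATP meaning fewer viable cells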
[3] = A cytotoxicity screen of small molecule inhibitors of the PhoP region in Salmonella typhi identified in the primary screen. [Related pubchem assays: 1850, 1864, 1985 ]; format: functional
[4] = target: T1, Microphthalmia-associated transcription factor (Homo sapiens, UniProt O75030); experiment: reducers of TRPM1 reporter luminescence, concentration series – cell-based, SK-MEL-5, cherry-picked, set 3, MITF inhibitor project, dose response (AID 493073); format: functional;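 further: SK-MEL-5 melanoma cells with luciferase driven by the MITF target TRPM1 promoter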
T1 sequence (O75030 whole entry): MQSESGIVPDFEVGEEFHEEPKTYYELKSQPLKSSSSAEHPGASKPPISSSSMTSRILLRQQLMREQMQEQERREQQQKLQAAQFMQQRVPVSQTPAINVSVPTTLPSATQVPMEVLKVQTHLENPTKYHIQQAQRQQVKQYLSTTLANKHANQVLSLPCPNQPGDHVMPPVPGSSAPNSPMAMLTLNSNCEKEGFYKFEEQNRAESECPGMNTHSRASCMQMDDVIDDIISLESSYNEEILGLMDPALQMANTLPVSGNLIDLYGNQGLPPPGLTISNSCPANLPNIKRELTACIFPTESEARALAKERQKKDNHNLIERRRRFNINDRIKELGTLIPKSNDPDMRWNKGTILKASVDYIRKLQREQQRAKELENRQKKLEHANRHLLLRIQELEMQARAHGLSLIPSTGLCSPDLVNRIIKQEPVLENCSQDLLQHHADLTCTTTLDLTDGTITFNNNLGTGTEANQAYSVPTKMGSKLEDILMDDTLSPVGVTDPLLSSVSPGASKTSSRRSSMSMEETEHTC

[5] = target: T2, Bifunctional protein GlmU (Mycobacterium tuberculosis, UniProt P9WMN3); experiment: Inhibitors of Mycobacterial Glucosamine-1-phosphate acetyl transferase (GlmU). Secondary screen.; design: species or system Mycobacterium tuberculosis H37Rv
T2 sequence (P9WMN3 whole entry): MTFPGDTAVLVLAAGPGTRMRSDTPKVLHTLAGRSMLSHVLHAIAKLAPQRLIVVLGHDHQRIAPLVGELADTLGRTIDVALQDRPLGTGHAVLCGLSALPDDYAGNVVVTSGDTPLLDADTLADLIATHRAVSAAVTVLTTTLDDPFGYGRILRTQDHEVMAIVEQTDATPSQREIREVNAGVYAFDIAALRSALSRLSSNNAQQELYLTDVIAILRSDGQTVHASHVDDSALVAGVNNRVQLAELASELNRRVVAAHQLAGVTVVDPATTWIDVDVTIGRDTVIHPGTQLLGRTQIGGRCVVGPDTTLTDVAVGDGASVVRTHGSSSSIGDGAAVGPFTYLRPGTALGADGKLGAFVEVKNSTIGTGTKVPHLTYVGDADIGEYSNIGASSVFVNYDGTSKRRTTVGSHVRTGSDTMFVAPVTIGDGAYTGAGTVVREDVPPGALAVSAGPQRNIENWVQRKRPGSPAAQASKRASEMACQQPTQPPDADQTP

[6] = target: T3, Zinc finger protein mex-5 (Caenorhabditis elegans, UniProt Q9XUB2); experiment: potency of MEX-5 RNA-binding blockers – biochemical, C. elegans, fluorescence polarization, dose response (AID 1960)
T3 sequence (Q9XUB2 whole entry): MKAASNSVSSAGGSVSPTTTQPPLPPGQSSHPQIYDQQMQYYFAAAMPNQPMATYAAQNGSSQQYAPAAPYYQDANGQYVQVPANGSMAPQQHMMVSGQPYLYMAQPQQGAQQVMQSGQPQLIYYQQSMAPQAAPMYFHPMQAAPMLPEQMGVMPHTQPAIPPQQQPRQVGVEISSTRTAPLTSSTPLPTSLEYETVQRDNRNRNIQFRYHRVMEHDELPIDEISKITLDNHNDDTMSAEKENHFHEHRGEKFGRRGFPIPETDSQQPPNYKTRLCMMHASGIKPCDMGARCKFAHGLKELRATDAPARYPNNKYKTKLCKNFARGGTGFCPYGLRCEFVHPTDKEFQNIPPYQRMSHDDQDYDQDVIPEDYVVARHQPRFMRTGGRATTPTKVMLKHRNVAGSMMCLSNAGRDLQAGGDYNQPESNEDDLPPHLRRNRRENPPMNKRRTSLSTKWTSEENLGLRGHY

[7] = target: T4, RNA-binding protein pos-1 (Caenorhabditis elegans, UniProt G5EF15); experiment: disruptors of C. elegans POS-1 RNA interaction – biochemical, fluorescence polarization, dose response (AID 1964);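 further: purified POS-1 fused to maltose binding protein made in E. coli; potency of compounds blocking POS-1 binding to fluorescent RNA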
T4 sequence (G5EF15 whole entry): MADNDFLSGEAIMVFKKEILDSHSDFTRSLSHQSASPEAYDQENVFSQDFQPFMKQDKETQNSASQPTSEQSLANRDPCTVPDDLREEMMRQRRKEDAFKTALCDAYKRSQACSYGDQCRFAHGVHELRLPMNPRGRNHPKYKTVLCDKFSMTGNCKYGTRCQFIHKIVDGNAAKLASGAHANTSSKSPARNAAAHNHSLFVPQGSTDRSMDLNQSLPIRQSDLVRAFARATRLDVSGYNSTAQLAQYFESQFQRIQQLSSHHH

[8] = target: T5, Cytochrome P450 1A2 (Homo sapiens, UniProt P05177);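 further: PubChem cytochrome P450 panel assay, CYP1A2 panel member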
T5 sequence (P05177 whole entry): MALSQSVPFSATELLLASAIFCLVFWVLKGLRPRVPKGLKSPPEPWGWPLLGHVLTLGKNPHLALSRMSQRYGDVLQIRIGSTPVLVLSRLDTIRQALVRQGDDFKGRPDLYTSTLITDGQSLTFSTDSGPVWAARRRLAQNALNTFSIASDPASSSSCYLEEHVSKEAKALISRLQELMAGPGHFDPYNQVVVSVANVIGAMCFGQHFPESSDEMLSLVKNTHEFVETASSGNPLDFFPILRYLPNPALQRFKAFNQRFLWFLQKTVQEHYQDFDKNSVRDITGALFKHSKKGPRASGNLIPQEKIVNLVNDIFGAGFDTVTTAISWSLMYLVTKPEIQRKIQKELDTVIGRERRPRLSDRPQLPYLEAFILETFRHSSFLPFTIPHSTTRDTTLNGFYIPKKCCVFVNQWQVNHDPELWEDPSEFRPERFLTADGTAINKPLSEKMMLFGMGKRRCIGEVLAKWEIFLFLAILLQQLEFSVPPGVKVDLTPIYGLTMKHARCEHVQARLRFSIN

[9] = IC50 of insulin release inhibition, rat insulinoma INS-1E line, 5 mM glucose, cell-based (AID 1117331); format: functional
[10] = target: Cytochrome P450 2D6 (Homo sapiens, UniProt P10635);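 further: CYP2D6 member of a cytochrome P450 panel assay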
[11] = target: Estrogen receptor beta (Homo sapiens, UniProt Q92731);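 further: recombinant ER-beta bound to coactivator SRC1 peptide in presence of estradiol agonist; inhibitors block coactivator peptide binding and lower the FRET signal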
[12] = target: T6, Polyadenylate-binding protein 1 (Homo sapiens, UniProt P11940); experiment: MLLE binding blockers, Cy5 peptide tracer – biochemical, fluorescence polarization, Cy5-PAM2 peptide, secondary, miRNA deadenylation inhibitor project, dose response (AID 602260); format: functional; conditions: read-out: IC50_Mean
[13] = target: T7, Apoptotic protease-activating factor 1 (Homo sapiens, UniProt O14727); format: functional
T7 sequence (O14727 whole entry): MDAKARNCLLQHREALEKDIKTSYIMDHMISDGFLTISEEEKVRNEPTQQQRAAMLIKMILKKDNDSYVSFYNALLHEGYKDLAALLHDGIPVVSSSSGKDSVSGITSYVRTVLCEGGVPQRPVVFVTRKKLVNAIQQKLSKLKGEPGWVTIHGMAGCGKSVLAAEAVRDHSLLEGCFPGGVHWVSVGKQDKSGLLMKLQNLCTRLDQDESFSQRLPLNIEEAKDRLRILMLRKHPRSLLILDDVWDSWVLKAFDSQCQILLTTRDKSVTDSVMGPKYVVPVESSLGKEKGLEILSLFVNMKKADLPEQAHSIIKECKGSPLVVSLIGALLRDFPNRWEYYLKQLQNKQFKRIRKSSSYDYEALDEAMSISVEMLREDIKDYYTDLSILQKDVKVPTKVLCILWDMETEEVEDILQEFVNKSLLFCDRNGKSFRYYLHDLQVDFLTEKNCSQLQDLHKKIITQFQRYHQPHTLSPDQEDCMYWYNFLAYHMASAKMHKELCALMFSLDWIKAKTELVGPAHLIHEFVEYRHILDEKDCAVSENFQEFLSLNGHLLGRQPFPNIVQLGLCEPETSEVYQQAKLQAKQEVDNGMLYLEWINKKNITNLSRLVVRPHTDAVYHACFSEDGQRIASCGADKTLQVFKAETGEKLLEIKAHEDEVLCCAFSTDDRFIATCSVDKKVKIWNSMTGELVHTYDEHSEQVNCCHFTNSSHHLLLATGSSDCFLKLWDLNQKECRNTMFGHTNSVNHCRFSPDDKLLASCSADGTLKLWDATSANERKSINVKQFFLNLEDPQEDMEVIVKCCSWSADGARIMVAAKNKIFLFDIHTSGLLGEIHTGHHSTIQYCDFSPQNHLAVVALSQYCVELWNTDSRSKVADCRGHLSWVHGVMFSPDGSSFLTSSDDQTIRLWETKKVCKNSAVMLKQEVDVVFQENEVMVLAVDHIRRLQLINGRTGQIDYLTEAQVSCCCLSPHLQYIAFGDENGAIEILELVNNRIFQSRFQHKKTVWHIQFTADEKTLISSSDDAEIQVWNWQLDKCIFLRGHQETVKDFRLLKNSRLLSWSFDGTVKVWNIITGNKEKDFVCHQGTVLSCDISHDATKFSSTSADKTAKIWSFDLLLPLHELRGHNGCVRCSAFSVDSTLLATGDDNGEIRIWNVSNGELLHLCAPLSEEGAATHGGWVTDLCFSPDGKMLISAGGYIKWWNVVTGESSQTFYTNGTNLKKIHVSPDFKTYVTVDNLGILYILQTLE

[14] = target: Nonstructural protein 1 (Influenza A virus, UniProt Q194T2); format: functional, Influenza A virus (A/California/07/2009(H1N1))
[15] = target: T6, Polyadenylate-binding protein 1; experiment: MLLE domain peptide-binding blockers, IC50 – biochemical, fluorescence polarization, FITC-PAM2 peptide, dose response (AID 602259); format: functional; conditions: read-out: IC50_Mean
[16] = target: T8, Caspase-6 (Homo sapiens, UniProt P55212); experiment: inhibition of CASP6 peptide cleavage – biochemical, VEID-R110 fluorescence, cherry-pick, dose response (AID 720632)
T8 sequence (P55212 whole entry): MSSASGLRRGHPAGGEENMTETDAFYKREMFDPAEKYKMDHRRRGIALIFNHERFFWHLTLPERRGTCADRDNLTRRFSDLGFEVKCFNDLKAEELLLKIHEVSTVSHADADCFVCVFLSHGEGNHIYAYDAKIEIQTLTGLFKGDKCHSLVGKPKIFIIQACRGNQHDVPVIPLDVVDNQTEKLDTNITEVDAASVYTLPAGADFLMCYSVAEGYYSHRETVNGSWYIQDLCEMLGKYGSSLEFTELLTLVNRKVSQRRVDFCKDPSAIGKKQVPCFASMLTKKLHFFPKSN

[17] = target: T9, Caspase-9 (Homo sapiens, UniProt P55211); experiment: inhibitors of purified CASP9 protease – biochemical, fluorescence, plate reader, cherry-picked samples, selectivity assay for caspase-6 inhibitor project, dose response (AID 743293)
T9 sequence (P55211 whole entry): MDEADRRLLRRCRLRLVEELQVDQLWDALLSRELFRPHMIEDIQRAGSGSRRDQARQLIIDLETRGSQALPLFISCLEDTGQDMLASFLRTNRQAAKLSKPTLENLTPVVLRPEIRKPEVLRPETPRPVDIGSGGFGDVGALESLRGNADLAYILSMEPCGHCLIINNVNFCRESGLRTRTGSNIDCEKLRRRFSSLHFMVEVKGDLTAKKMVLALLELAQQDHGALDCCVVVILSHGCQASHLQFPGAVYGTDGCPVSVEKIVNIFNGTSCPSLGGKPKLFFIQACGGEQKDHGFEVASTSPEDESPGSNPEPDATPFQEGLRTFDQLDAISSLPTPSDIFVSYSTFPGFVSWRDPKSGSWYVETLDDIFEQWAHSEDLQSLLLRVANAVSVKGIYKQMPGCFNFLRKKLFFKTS

[18] = target: Caspase-8 (Homo sapiens, UniProt Q14790); experiment: inhibitors of purified CASP8 protease – biochemical, Z-IETD-R110 fluorescence, cherry-picked samples, selectivity assay for caspase-6 inhibitor project, dose response (AID 743294)
Sequence of Caspase-8 (Q14790 217-374 limits assumed): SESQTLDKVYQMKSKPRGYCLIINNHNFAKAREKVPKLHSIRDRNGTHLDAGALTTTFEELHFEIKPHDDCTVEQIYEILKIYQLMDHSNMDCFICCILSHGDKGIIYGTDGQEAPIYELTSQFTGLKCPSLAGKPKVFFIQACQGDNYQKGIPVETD
Sequence of Caspase-8 (Q14790 385-479 limits assumed): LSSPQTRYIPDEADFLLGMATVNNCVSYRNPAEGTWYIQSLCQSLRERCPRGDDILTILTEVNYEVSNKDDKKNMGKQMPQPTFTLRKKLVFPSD

T6 sequence (P11940 whole entry): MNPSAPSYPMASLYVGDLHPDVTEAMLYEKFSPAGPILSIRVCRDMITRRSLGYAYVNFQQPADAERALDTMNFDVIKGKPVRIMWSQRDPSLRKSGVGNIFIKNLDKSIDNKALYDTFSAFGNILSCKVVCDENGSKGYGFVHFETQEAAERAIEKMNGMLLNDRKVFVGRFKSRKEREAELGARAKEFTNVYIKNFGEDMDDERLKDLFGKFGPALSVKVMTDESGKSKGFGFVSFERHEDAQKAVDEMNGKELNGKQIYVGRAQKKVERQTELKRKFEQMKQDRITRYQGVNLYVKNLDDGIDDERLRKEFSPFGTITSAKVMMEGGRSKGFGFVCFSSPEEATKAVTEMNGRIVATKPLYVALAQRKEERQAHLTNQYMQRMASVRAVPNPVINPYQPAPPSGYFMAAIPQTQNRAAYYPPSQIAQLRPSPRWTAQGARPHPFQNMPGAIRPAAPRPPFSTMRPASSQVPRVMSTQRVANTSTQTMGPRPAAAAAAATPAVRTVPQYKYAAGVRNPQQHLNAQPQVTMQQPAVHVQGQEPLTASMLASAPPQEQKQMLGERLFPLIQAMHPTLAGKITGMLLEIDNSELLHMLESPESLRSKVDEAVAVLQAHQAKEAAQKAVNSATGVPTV
Sequence of Estrogen receptor beta (Q92731 whole entry): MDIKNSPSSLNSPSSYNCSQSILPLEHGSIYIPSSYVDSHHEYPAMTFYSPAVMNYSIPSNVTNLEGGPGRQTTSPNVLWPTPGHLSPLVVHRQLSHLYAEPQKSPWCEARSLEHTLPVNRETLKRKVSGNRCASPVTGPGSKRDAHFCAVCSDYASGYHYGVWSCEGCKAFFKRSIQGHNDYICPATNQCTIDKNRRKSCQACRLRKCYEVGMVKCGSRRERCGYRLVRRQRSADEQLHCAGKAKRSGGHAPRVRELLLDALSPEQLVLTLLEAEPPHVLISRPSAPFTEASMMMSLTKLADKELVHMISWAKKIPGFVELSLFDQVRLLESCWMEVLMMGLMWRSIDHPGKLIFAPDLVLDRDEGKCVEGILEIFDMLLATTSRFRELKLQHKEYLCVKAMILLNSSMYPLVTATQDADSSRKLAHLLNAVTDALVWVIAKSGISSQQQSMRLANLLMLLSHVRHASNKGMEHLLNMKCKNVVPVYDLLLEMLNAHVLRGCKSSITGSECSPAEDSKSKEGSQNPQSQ
Sequence of Cytochrome P450 2D6 (P10635 whole entry): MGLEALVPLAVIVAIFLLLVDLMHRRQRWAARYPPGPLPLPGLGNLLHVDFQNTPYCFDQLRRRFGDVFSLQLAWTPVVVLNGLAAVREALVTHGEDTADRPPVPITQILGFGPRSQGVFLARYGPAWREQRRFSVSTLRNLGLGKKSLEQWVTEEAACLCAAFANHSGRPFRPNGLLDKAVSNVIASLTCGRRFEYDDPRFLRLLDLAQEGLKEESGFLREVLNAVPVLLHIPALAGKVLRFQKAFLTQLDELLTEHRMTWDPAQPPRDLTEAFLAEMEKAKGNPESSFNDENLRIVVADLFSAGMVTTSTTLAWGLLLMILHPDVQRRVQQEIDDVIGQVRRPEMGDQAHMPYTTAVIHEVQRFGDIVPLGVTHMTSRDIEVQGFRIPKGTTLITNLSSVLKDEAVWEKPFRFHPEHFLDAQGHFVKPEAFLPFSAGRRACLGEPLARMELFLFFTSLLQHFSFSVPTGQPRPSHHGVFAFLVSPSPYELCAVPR
Sequence of Nonstructural protein 1 (Q194T2 whole entry, the tested form may be a part): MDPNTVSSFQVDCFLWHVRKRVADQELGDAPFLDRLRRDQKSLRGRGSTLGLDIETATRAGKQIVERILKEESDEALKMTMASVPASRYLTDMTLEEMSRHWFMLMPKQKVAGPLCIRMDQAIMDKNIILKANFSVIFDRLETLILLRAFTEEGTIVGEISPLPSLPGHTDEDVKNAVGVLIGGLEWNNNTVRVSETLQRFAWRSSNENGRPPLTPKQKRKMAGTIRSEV

Cn1c(SCC(=O)N2CCCCC2)nnc1-c1ccc(S(=O)(=O)N2CCOCC2)cc1
IC50 [1]: > 109 µM (inactive) | IC50 [2]: > 83.3 µM (inactive)

CCOC(=O)CSc1nnc2c(n1)C1(C)CCC2C1(C)C (centres undefined)
EC50 [3]: > 50 µM (active) | IC50 [1]: > 109 µM (inactive) | IC50 [2]: > 83.2 µM (inactive)

Cc1nn(-c2ccccc2Cl)c(Cl)c1/C=N/Nc1cccc(C(=O)O)c1
AC50 [4]: 5.5 µM (active) | IC50 [5]: 137 µM (active)

COc1ccccc1N1C(=O)C(Cl)=C(Nc2ccccc2O)C1=O
IC50 [5]: 90.9 µM (active) | EC50 [6]: 8.19 µM (inconclusive) | EC50 [7]: 34.7 µM (active)

CC1CCN(C(=O)CSc2ccc(-c3ccc(F)cc3)nn2)CC1
IC50 [1]: > 109 µM (inactive) | IC50 [2]: > 83.3 µM (inactive)

CCN(CC)CCOc1ccc(Cc2ccccc2)cc1
AC50 [8]: 12.6 µM (inconclusive) | IC50 [9]: > 33.3 µM (inactive) | AC50 [10]: 25.1 µM (inconclusive)

CCC1=C(C)CN(C(=O)NCCc2ccc(S(=O)(=O)NC(=O)N[C@H]3CC[C@H](C)CC3)cc2)C1=O [GLIMEPIRIDE]
IC50 [9]: 0.00406 µM (active)

COC(=O)C(O)(c1ccc(N(C)C(=O)OC(C)C)cc1)C(F)(F)F (centres undefined)
IC50 [11]: > 50 µM (not active)

Oc1cc(NCCc2cccnc2)cc2cccnc12
IC50 [12]: > 66 µM (inactive) | IC50 [13]: 18.4 µM (active) | IC50 [14]: 6.64 µM (active) | IC50 [15]: 42.3 µM (inactive) | AC50 [16]: 2.89 µM (active) | AC50 [17]: > 70 µM (inactive) | AC50 [18]: 30.1 µM (active)
